Legend:
[1] = Interaction study: storage of loxoprofen sodium hydrate/drug mixtures and of the single drugs at 60 °C (Test Examples 1, 4, 7, 10, 13, 16, 18, 20, 21, 23, 25, 27); format: physicochemical; conditions: stored 1 week in glass bottle (3K), evaluated at start, 1 day, 3 days (2 days in Test Examples 10 and 16) and 1 week
[2] = test system: gastric mucosal injury caused by loxoprofen [ロキソプロフェンに起因する胃粘膜障害]; test: Suppression of loxoprofen-induced gastrointestinal injury in rats (Test Examples 3, 6, 9, 12, 15, 24); format: in vivo, rat (Wistar); conditions: rat, 1 h before loxoprofen sodium hydrate 120 mg/kg p.o., result in words

Compound	state in the glass bottle on storage [1]	other results
CN1CCC[C@@H]1CCO[C@](C)(c1ccccc1)c1ccc(Cl)cc1 [クレマスチンフマル酸塩]	変化は生じなかった	reduction of loxoprofen-induced gastric mucosal injury ([2]; oral, 1 mg/5 mL/kg): 軽減した
Nc1c(Br)cc(Br)cc1CN[C@H]1CC[C@H](O)CC1 [アンブロキソール塩酸塩]	変化は生じなかった	
COc1ccc2c3c1O[C@H]1[C@@H](O)CC[C@H]4[C@@H](C2)N(C)CC[C@@]341 [ジヒドロコデインリン酸塩]		reduction of loxoprofen-induced gastric mucosal injury ([2]; oral, 8, 24, 72 mg/5 mL/kg, n=6): 軽減した
リゾチーム塩酸塩: リゾチーム塩酸塩 (lysozyme hydrochloride)	変化は生じなかった	
CN1CCC(OC(c2ccccc2)c2ccccc2)CC1 [ジフェニルピラリン塩酸塩]	変化は生じなかった	reduction of loxoprofen-induced gastric mucosal injury ([2]; oral, 3, 10 mg/5 mL/kg): 軽減した
C[C@@H]([C@H](O)c1ccccc1)N(C)C.Cl [dl−メチルエフェドリン塩酸塩]	変化は生じなかった	reduction of loxoprofen-induced gastric mucosal injury ([2]; oral, 20, 60, 180 mg/5 mL/kg): 軽減した
CN(Cc1cc(Br)cc(Br)c1N)C1CCCCC1 [ブロムヘキシン塩酸塩]	変化は生じなかった	
CN(C)CC[C@@H](c1ccc(Cl)cc1)c1ccccn1.O=C(O)/C=C\C(=O)O [クロルフェニラミンマレイン酸塩, d−クロルフェニラミンマレイン酸塩]	変化は生じなかった	reduction of loxoprofen-induced gastric mucosal injury ([2]; oral, 5, 40 mg/5 mL/kg): 軽減した
CC(C(=O)[O-])c1ccc(CC2CCCC2=O)cc1.O.O.[Na+] (centres unmarked) [ロキソプロフェンナトリウム水和物, Monosodium 2-[4-[(2-oxocyclopentyl)methyl]phenyl]propanoate dihydrate]	変化は生じなかった	
COc1ccccc1OCC(O)CO (centres unmarked) [グアイフェネシン]	変化は生じなかった	
COc1ccc2c(c1)[C@]13CCCC[C@@H]1[C@H](C2)N(C)CC3 [デキストロメトルファン臭化水素酸塩水和物]	変化は生じなかった	
CN(C)CCOC(c1ccc(Cl)cc1)c1ccccn1 (centres unmarked) [カルビノキサミンマレイン酸塩]	変化は生じなかった	reduction of loxoprofen-induced gastric mucosal injury ([2]; oral, 0.75, 75 mg/5 mL/kg): 軽減した
